Measured values from patent publication US10682371B2, “Small molecule conjugates specifically activated in tumor microenvironment for targeting and use thereof” (priority 2014, dated 2020).

Columns and labels:
[1] = test system: Human prostate cancer PC-3 cells / Panc-1 cells; assay: Tumor treatment in nude mice (PC-3 cells purchased, Panc-1 cells injected; Examples 22, 32, 42); type: in vivo; conditions: for Size of tumor (mm^3) Day 10 / inhibitory rate on tumor Day 10 / Size of tumor (mm^3) Day 24 / inhibitory rate on tumor Day 24: nude mice, IV once weekly for four weeks; for Inhibition on tumor growth, in words: compared with parent drug group (same molar concentration) and control group
Outline: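 Nude mice bearing subcutaneous Panc-1 xenografts (5×10^6 cells on the back) were randomized once tumors reached at least 100 mm^3. Drugs were given intravenously once weekly for four weeks, with saline controls. PC-3 cells were grown in DMEM/10% FBS and used within passage 15.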

[2] = test system: Human heart; type: biochemical
[3] = test system: 4T1 cells; assay: BALB/C mice model for tumor metastasis (4T1, lung metastases); type: in vivo; conditions: for Inhibitory effect on tumor metastasis, in words: compared with parent drug group and control group
Outline: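 Read-out: lung metastasis count under anatomical microscope after Bouin's staining, day 27. Treatment (IV every three days ×4, saline for controls) started after surgical removal of the ~1.5 cm subcutaneous tumor grown from 10^6 4T1 cells (passage ≤15) in BALB/C mice.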

[4] = test system: Human fibrosarcoma HT-1080 tumor tissue homogenate; type: biochemical; conditions: for Activation ratio (%) in homogenates from different tumor tissues: 37° C.
Outline: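 Homogenized tissue (100 μg) is acidified to pH6.0. Test compound is then added at 1 mg/ml, and the mixture is held at 37° C so that the proteases present can activate it.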

[5] = Solubility / formulation test in solvent 1 and solvent 2; type: physicochemical
Experimental: In Table 11, AAN, AANL and AANK indicate the linkage formed by small peptides in the compounds, A is Ala, N is Asn, L is Leu and K is Lys. […] The dissolution concentration is 10 mg/ml.
B1, B2, B3 and B4 and various control compounds were dried under vacuum, sterilized via gas sterilization, and separately packing in a sterile room. Before animal test, B1, B2, B3 and B4 were dissolved by solvent 1 (injectable water) or solvent 2 (30% alcohol, 70% injectable water) and diluted by injectable water to the desired concentration in sterile room. […] Change in solubility may greatly affect the formulation scheme of a drug.
D1, D2, D3, D4 and various control compounds were dried under vacuum, sterilized via gas sterilization, and separately packing in a sterile room. […] Change in solubility may greatly affect the formulation scheme of a drug.

[6] = test system: BALB/C mice; assay: Maximum tolerated dose (MTD) / acute toxicity by single intravenous injection; conditions: for MTD (maximum tolerated dose): intravenous injection, one time
[7] = test system: Panc-1 cells; assay: Tumor treatment in nude mice, Panc-1 model (Example 60); type: in vivo; conditions: for Size of tumor (mm^3) Day 10 / inhibitory rate on tumor Day 10 / Size of tumor (mm^3) Day 24 / inhibitory rate on tumor Day 24: Panc-1 in nude mice, IV once weekly for four weeks, E1-E4 15 mg/kg, mitomycin 2 mg/kg; for Inhibition on tumor growth, in words: Panc-1, compared with mitomycin group and control group
Experimental: 1) Panc-1 cells were purchased from American type culture collection (ATCC) and identified according the specification provided by ATCC. Cells were cultivated in DMEM culture solution containing 10% fetal bovine serum at 37° C. and 5% CO2. The cells were passaged for every three days and cells within the 15th passage were used.
2) Production of tumor. 5×10^6Panc-1 cells were subcutaneously injected to the back of the nude mice. Mice were randomly grouped after the tumor reached at least 100 mm^3. Then treatment began and the day on which the treatment began was day 1.
[…]. The control group was administered by physiological saline. Drugs were administered once weekly for four weeks.

[8] = Table 38, B1-B4 25 mg/kg, Docetaxel […]
[9] = Table 40, BALB/C mice, 4T1, lung metastases day 27, IV every three days for 4 times, B1-B4 17.6 μmol/kg, Docetaxel 3 μmol/kg
[10] = single intravenous injection, 125 mg/kg, 10 BALB/C mice per group
[11] = single intravenous injection, 150 mg/kg, 10 BALB/C mice per group
[12] = single intravenous injection, 175 mg/kg, 10 BALB/C mice per group
[13] = single intravenous injection, 200 mg/kg, 10 BALB/C mice per group
[14] = day 27, IV once every three days for 4 times, E1-E4 15 mg/kg, mitomycin 1 mg/kg
[15] = lung metastases counted on day 27, IV once every three days for 4 times, E1-E4 15 mg/kg, mitomycin 1 mg/kg
[16] = Human fibrosarcoma HT-1080, 1 mg/ml, 100 μg acidized homogenate
[17] = 50 mg/kg single IV injection, 10 BALB/C mice
[18] = 50 mg/kg single IV injection, 10 BALB/C mice, observed 17 days
[19] = 70 mg/kg single IV injection, 10 BALB/C mice
[20] = 70 mg/kg single IV injection, 10 BALB/C mice, observed 17 days
[21] = 90 mg/kg single IV injection, 10 BALB/C mice
[22] = 90 mg/kg single IV injection, 10 BALB/C mice, observed 17 days
[23] = 110 mg/kg single IV injection, 10 BALB/C mice
[24] = 110 mg/kg single IV injection, 10 BALB/C mice, observed 17 days
[25] = BALB/C mice receiving 90 mg/kg injection
[26] = S1′-S4′ 24 mg/kg, Paclitaxel 8 mg/kg
[27] = 4T1, BALB/C mice, lung, day 27, IV every three days for 4 times, S1′-S4′ 12 mg/kg, Paclitaxel 4 mg/kg

Structure (SMILES) | Inhibition on tumor growth, in words [1] | Inhibitory effect on tumor metastasis, in words [3] | MTD (maximum tolerated dose) ([6]; BALB/C mice) | Inhibitory rate on metastasis [3, 14] | Number of metastasized tumor [3, 15] | Activation ratio (%) in homogenates from different tumor tissues [4, 16] | Size of tumor (mm^3) Day 10 [7] | inhibitory rate on tumor Day 10 [7] | Size of tumor (mm^3) Day 24 [7] | inhibitory rate on tumor Day 24 [7] | Inhibition on tumor growth, in words [7] | Mortality rate (%) [6, 17] | Number of dead animal [6, 18] | Mortality rate (%) [6, 19] | Number of dead animal [6, 20] | Mortality rate (%) [6, 21] | Number of dead animal [6, 22] | Mortality rate (%) [6, 23] | Number of dead animal [6, 24] | Behaviors and death observed [6, 25] | also measured
COCCOCC(=O)NCCCC[C@H](NC(=O)COCCOC)C(=O)N[C@H](C)C(=O)N[C@H](C)C(=O)N[C@H](CC(N)=O)C(=O)Nc1ccc(COC(=O)OC(C(=O)OC2C[C@@]3(O)[C@@H](OC(=O)c4ccccc4)[C@H]4[C@](C)(C(=O)[C@H](O)C(=C2C)C3(C)C)[C@@H](O)CC2OC[C@]24OC(C)=O)[C@@H](NC(=O)OC(C)(C)C)c2ccccc2)cc1 (stereo partly shown) [Compound B1] | greatly improved | greatly improved | about 150 mg/kg | – | – | – | – | – | – | – | – | – | – | – | – | – | – | – | – | – | Size of tumor (mm^3) Day 10 [1, 8]: 92.4 ± 59.66 mm^3; inhibitory rate on tumor Day 10 [1, 8]: 67.8; Size of tumor (mm^3) Day 24 [1, 8]: 128.45 ± 105.56 mm^3; inhibitory rate on tumor Day 24 [1, 8]: 66.3; activation efficiency (%) ([2]; Table 34, Human heart, 1 mg/ml, acidized homogenate, Docetaxel release by HPLC): 12.2%; Inhibitory rate on metastasis [3, 9]: 96.0; Number of metastasized tumor [3, 9]: 5 ± 3; activation efficiency (%) ([4]; Table 34, Human fibrosarcoma HT-1080, 1 mg/ml, 100 μg acidized homogenate, Docetaxel release by HPLC): 79.1%; solubility in Solvent 1 ([5]; solvent 1 (injectable water), Table 33, water-soluble Docetaxel series): insoluble; solubility in Solvent 2 ([5]; solvent 2 (30% alcohol, 70% injectable water), Table 33, water-soluble Docetaxel series): soluble; Behaviors and death observed ([6]; BALB/C mice receiving 175 mg/kg injection): no pilo-erection, hair tousle and lackluster, lethargy, stoop, irritable reaction and death; Mortality rate (%) [6, 10]: 0%; Number of dead animal [6, 10]: 0; Mortality rate (%) [6, 11]: 0%; Number of dead animal [6, 11]: 0; Mortality rate (%) [6, 12]: 0%; Number of dead animal [6, 12]: 0; Mortality rate (%) [6, 13]: 20%; Number of dead animal [6, 13]: 2
COCCOCC(=O)N[C@H](C)C(=O)N[C@H](C)C(=O)N[C@H](CC(N)=O)C(=O)Nc1ccc(COC(=O)N2[C@@H]3CN4C5=C(C(=O)C(N)=C(C)C5=O)[C@H](COC(N)=O)[C@]4(OC)[C@@H]32)cc1 [Compound E1, 2-(2-methoxyethoxy) acetyl-L-Ala-L-Ala-L-Asn-4-amino benzyl mitomycin] | – | greatly improved | – | 99.2% | 2 ± 3 | 83.6% | 76.42 ± 14.96 mm^3 | 35.7% | 84.62 ± 45.94 mm^3 | 66.1% | greatly improved | 0% | 0 | 0% | 0 | 0% | 0 | 10% | 1 | no pilo-erection, hair tousle and lackluster, lethargy, stoop, irritable reaction and death | –
COCCOCCOCCOCCOCCOCC(=O)N[C@H](C)C(=O)N[C@H](C)C(=O)N[C@H](CC(N)=O)C(=O)Nc1ccc(COC(=O)N2[C@H]3[C@@H]2CN2C4=C(C(=O)C(N)=C(C)C4=O)[C@H](COC(N)=O)[C@]32OC)cc1 [Compound E2] | – | greatly improved | – | 94.1% | 8 ± 7 | 85.7% | 60.17 ± 30.26 mm^3 | 36.4% | 42.39 ± 62.24 mm^3 | 83.01% | greatly improved | 0% | 0 | 0% | 0 | 0% | 0 | 10% | 1 | no pilo-erection, hair tousle and lackluster, lethargy, stoop, irritable reaction and death | –
COc1cccc2c1C(=O)c1c(O)c3c(c(O)c1C2=O)C[C@@](O)(C(C)=O)C[C@@H]3O[C@H]1C[C@H](NC(=O)OCc2ccc(NC(=O)[C@H](CC(N)=O)NC(=O)[C@H](C)NC(=O)[C@H](C)NC(=O)CCCCCN3C(=O)C=CC3=O)cc2)[C@H](O)[C@H](C)O1 [Compound S5, 4-N—(N—(N—(N-(6-maleimidocaproyl)-L-alanyl)-L-alanyl)-L-asparaginyl)-amino benzyl alcohol-daunorubicin-carbamate] | – | – | – | – | – | – | – | – | – | – | – | – | – | – | – | – | – | – | – | – | Activation Efficiencies (%) ([2]; Human heart homogenate, 1 mg/ml compound): 3.5%; Activation Efficiencies (%) ([4]; Human fibrosarcoma HT-1080 tumor tissue homogenate (30 μg/ml), 1 mg/ml compound): 98.4%
COCCOCCOCCOCCOCCOCC(=O)N[C@H](C)C(=O)N[C@H](C)C(=O)N[C@H](CC(N)=O)C(=O)Nc1ccc(COC(=O)OC(C(=O)OC2C[C@@]3(O)[C@@H](OC(=O)c4ccccc4)[C@H]4[C@](C)(C(=O)[C@H](OC(C)=O)C(=C2C)C3(C)C)[C@@H](O)CC2OC[C@]24OC(C)=O)[C@@H](NC(=O)c2ccccc2)c2ccccc2)cc1 (stereo partly shown) [S2′] | greatly improved | greatly improved | about 90 mg/kg | – | – | – | – | – | – | – | – | – | – | – | – | – | – | – | – | no pilo-erection, hair tousle and lackluster, lethargy, stoop, irritable reaction and death | Size of tumor (mm^3) Day 10 [1, 26]: 60.17 ± 30.26 mm^3; inhibitory rate on tumor Day 10 [1, 26]: 36.4%; Size of tumor (mm^3) Day 24 [1, 26]: 42.39 ± 62.24 mm^3; inhibitory rate on tumor Day 24 [1, 26]: 83.01%; Activation ratio (%) in homogenates from different tumor tissues ([2]; Human heart, 1 mg/ml, 37°): none; Inhibitory rate on metastasis [3, 27]: 94.1%; Number of metastasized tumor [3, 27]: 8 ± 7; solubility in Solvent 1 ([5]; Solvent 1 injectable water, dissolution concentration 10 mg/ml): soluble; solubility in Solvent 2 ([5]; Solvent 2: 50% injectable water, 45%-49% propanediol, 1%-5% Tween80, dissolution concentration 10 mg/ml): soluble; Concentration achieved, completely dissolved in both solvent 1 and solvent 2 ([5]; solvent 1 injectable water, solvent 2 50% injectable water, 42%-49% propanediol, 1%-8% Tween80): 10000 µg/mL; Mortality rate (%) ([6]; BALB/C mice, single iv, 125 mg/kg): 0%; Number of dead animal ([6]; BALB/C mice, single iv, 125 mg/kg, 10 animals): 0; Mortality rate (%) ([6]; BALB/C mice, single iv, 150 mg/kg): 0%; Number of dead animal ([6]; BALB/C mice, single iv, 150 mg/kg, 10 animals): 0; Mortality rate (%) ([6]; BALB/C mice, single iv, 175 mg/kg): 0%; Number of dead animal ([6]; BALB/C mice, single iv, 175 mg/kg, 10 animals): 0; Mortality rate (%) ([6]; BALB/C mice, single iv, 200 mg/kg): 10%; Number of dead animal ([6]; BALB/C mice, single iv, 200 mg/kg, 10 animals): 1
